Laboratory results reported in patent US20220241306A1, “CHITIN ANALOGS FOR THE TREATMENT OF KIDNEY DISEASES” (AyuVis Research, Inc., priority 2021, published 2022).

Legend:
[1] = test system: glycerol-induced AKI; test: Mouse model for acute kidney injury (glycerol-induced): serum creatinine, BUN, proteinuria; type: in vivo; conditions: for blood urea nitrogen (BUN) level in serum / serum creatinine level: glycerol IM, compound 2 (5 mg/kg) or compound 8 (2.5 mg/kg) IP at 1, 6 and 24 hrs post glycerol, vs glycerol controls
From the text: Mouse model for acute kidney injury. Eight to ten weeks old male C57 BL/6J mice (n=5-7 per group, male and female) were utilized to induce acute kidney injury. Animals were randomized before treatment. Littermates or co-housed animals were chosen for this study. The mice were kept without water but unlimited access to chow for −24 hrs. In first study, nine ml per kg body weight of 1:1 diluted glycerol was intramuscularly injected followed by intraperitoneal administration of either compound 2 (5 mg/kg) or compound 8 (2.5 mg/kg body weight) at 1, 6 and 24 hrs post glycerol dosing. In a second study, AVR-48 was injected either at 5.0 mg/kg/dose or 10 mg/kg/dose IP after 3 h of glycerol administration and was dosed 2/day for 3 days (total 7 doses) and survival was monitored till 8 days. Proteinuria was measured in urine at 24 hrs before sacrifice of the animals by an albustix proteinuria strip. The mice were sacrificed, and bloods were collected by heart puncture. Serum samples were stored at −80° C. for future use. Kidney, spleens, lungs and liver were immediately fixed in 10% buffered formalin for histopathological analysis. Part of the kidney were snap frozen for RNA isolation. To evaluate the effect of AVR-48 and AVR-123 on acute kidney injury, the inventors measured the vital parameters of kidney injury, i.e., levels of creatinine and blood urea nitrogen (BUN) in the serum of animals treated with AVR-48 and AVR-123 along with glycerol treated positive controls. PBS treated animals were considered as sham. […] N=4-7 mice. *p=0.02, **p=0.00′7, and ***p=0.0004, One-way ANOVA, Dunnett's multiple comparison test. […] N=4-7 mice, each sample run in duplicates. ****p<0.0001, One-way ANOVA, Dunnett's multiple comparison test.

[2] = test system: TNF-α; test: RT-PCR of kidney tissue, glycerol-treated mice: TNF-α; type: in vivo, mouse; conditions: whole kidney tissue, RT-PCR vs GAPDH
From the text: (§1) Mouse model for acute kidney injury. Eight to ten weeks old male C57 BL/6J mice (n=5-7 per group, male and female) were utilized to induce acute kidney injury. Animals were randomized before treatment. Littermates or co-housed animals were chosen for this study. The mice were kept without water but unlimited access to chow for −24 hrs. In first study, nine ml per kg body weight of 1:1 diluted glycerol was intramuscularly injected followed by intraperitoneal administration of either compound 2 (5 mg/kg) or compound 8 (2.5 mg/kg body weight) at 1, 6 and 24 hrs post glycerol dosing. In a second study, AVR-48 was injected either at 5.0 mg/kg/dose or 10 mg/kg/dose IP after 3 h of glycerol administration and was dosed 2/day for 3 days (total 7 doses) and survival was monitored till 8 days.
(§2) The mice were sacrificed, and bloods were collected by heart puncture. Serum samples were stored at −80° C. for future use. Kidney, spleens, lungs and liver were immediately fixed in 10% buffered formalin for histopathological analysis. Part of the kidney were snap frozen for RNA isolation.
(§3) RNA isolation and RT-PCR. RNA was isolated from snap-frozen kidney samples by using RNA plus micro kit (Qiagen) according to manufacturer's instruction. c-DNA were prepared by Quanta-Bio-C-DNA kit. […] The expression of various genes was analyzed in comparison to GAPDH. […]

[3] = test system: IL-1β; test: RT-PCR of kidney tissue, glycerol-treated mice: IL-1β; type: in vivo, mouse; conditions: whole kidney tissue, RT-PCR vs GAPDH
From the text: as §1, §2, §3

[4] = test system: IL-10; test: RT-PCR of kidney tissue, glycerol-treated mice: IL-10; type: in vivo, mouse
From the text: as §1, §2
RNA isolation and RT-PCR. […] The expression of various genes was analyzed in comparison to GAPDH.
FIGS. 6A and 6B are graphs that show the level of the anti-inflammatory cytokine IL-10 in the whole kidney tissue (FIG. 6A) and in kidney cortex tissue (FIG. 6B) with or without AVR-48 treatment as determined by RT-PCR experiment. […]

[5] = test system: hemeoxygenase-1 (OH-1); test: RT-PCR of kidney cortical tissue, glycerol-treated mice: hemeoxygenase-1; type: in vivo, mouse; conditions: kidney cortical tissue (FIG. 7A); vs glycerol
From the text: as §1, §2, §3

[6] = test system: NGAL; test: RT-PCR of kidney cortical tissue, glycerol-treated mice: NGAL; type: in vivo, mouse; conditions: kidney cortical tissue (FIG. 7B); vs glycerol
From the text: as §1, §2, §3

[7] = test system: cyclooxygenase-2 (Cox-2); test: RT-PCR of whole kidney tissue, glycerol-treated mice: Cox-2 mRNA; type: in vivo, mouse; conditions: vs glycerol injection
From the text: as §1, §2
RNA isolation and RT-PCR. RNA was isolated from snap-frozen kidney samples by using RNA plus micro kit (Qiagen) according to manufacturer's instruction. c-DNA were prepared by Quanta-Bio-C-DNA kit. […] The expression of various genes was analyzed in comparison to GAPDH.

[8] = test system: glycerol induced rhabdomyolysis model; test: Survival in glycerol induced rhabdomyolysis model; type: in vivo, mouse; conditions: 10 mg/kg/dose IP from 3 h after glycerol, 2/day for 3 days; monitored till 8 days; vs glycerol+saline, p<0.05
From the text: as §1
FIG. 9 is a graph showing survival curve of the mouse in a glycerol induced rhabdomyolysis model when dosed after 3 h of glycerol administration.

[9] = test system: glycerol induced damage of kidney tissues; test: H/E staining of mouse whole kidney tissue after glycerol; type: in vivo; conditions: N=5
From the text: as §1, §2

[10] = test system: mechanical ventilator induced kidney injury; test: Preterm lamb model of mechanical ventilator induced kidney injury: renal cortical histology; type: in vivo; conditions: 3.0 mg/Kg twice daily IV during mechanical ventilation, vs vehicle (saline)
Method: (§4) A unique PT lamb model, developed by Dr. Albertine (University of Utah), was used to emulate the clinical setting for PT human infants with respiratory failure related to premature birth before the lungs are mature enough to support extra-uterine life.
(§5) A dose range-finding study was conducted with the goal of treating 2-3 PT lambs with either a vehicle control or AVR-48 (compound 8, 3mg/kg/dose) by twice daily intravenous infusions during 6 to 7 days of mechanical ventilation, followed by transition to noninvasive respiratory support (NIS) for 3 days, for a total of 10 days of management of these PT lambs. AVR-48 was not given during the period of noninvasive respiratory support to assess short-term persistence of effect of AVR-48. Detailed methods have been published previously by Reyburn et al. and Null et al (Reyburn, Li et al. 2008, Null, Alvord et al. 2014), relevant portions incorporated herein by reference. All protocols have been adhered to APS/NIH guidelines for animal research and have been approved by the Institution Animal Care and Use Committees (IACUC) at the University of Utah.
FIGS. 11A and 11B compare renal cortical histology from the preterm lamb treated with 3.0 mg/Kg of AVR-48 (FIG. 11A) versus the vehicle-treated lamb (saline; FIG. 11B). Renal cortical histology is normal in the 3.0 mg/Kg AVR-48-treated lamb. […]

[11] = test system: mechanical ventilator induced kidney injury; test: Preterm lamb model of mechanical ventilator induced kidney injury: BUN; type: in vivo; conditions: day 10, after 7 days of treatment on invasive mechanical ventilator
Method: as §4, §5
Fetal lamb is term lamb control. N=2-3, **p<0.01, *** student t test (2-tailed), Dunnett's multiple comparison test.

SMILES | blood urea nitrogen (BUN) level in serum [1] | serum creatinine level [1] | total proteinuria level ([1]; urine at 24 hrs, albustix proteinuria strip, vs glycerol treated mice) | level of TNF-α in kidney tissue [2] | level of IL-1β in kidney tissue [3] | level of IL-10 in kidney cortex tissue ([4]; kidney cortex tissue, RT-PCR (FIG. 6B), vs glycerol treated group) | level of IL-10 in whole kidney tissue ([4]; whole kidney tissue, RT-PCR (FIG. 6A)) | level of hemeoxygenase-1 (OH-1) in kidney cortical tissue [5] | level of NGAL in kidney cortical tissue [6] | Cox-2 mRNA level in whole kidney tissue [7] | survival [8] | H/E staining of whole kidney tissue [9] | renal cortical histology [10] | BUN at day 10 [11]
CC(=O)N[C@@H]1C(Oc2ccc([N+](=O)[O-])cc2)OC(CO)C(O)C1O (stereo partly shown) [AVR-48] | significantly reduced | significantly reduced | decreased proteinuria levels | significantly decreased the level | significantly decreased the level | decreased the level and brought it back close to normal | significantly high | decreased the level significantly | decreased | decreased significantly | significant difference in survival | significant protection of kidney tissues | normal | decreased BUN
CC(=O)NC1[C@H](Oc2ccc(C(=O)N[C@@H]3OC(COC(C)=O)[C@@H](OC(C)=O)[C@H](OC(C)=O)C3NC(C)=O)cc2)OC(CO)[C@@H](O)[C@@H]1O (stereo partly shown) [AVR-123] | significantly reduced | significantly reduced | – | – | – | – | – | – | – | – | – | – | – | –
